Source: paper PMC10818515, “Improvement of the Thermal Stability and Aqueous Solubility of Three Matrine Salts Assembled by the Similar Structure Salt Formers” (Pharmaceuticals, 2024)
≈ marks a conversion by molar mass, not a printed value. Where two headings read alike, the source gives them in different places.

Test: Equilibrium solubility by the shake flask method
Assay type: physicochemical
Conditions: 37 °C; for solubility thermodynamic at 72 h: thermodynamic from solid, read-out: Equilibrium solubility, Concentration; for solubility thermodynamic at 72 h / Equilibrium solubility, Concentration: n = 3
Experimental: Aqueous solubility is one of the key factors affecting the bioavailability of drugs. […] Generally, the charged part has high aqueous solubility. […] The concentration of the samples was analyzed through high-performance liquid chromatography. The mobile phase consisted of methanol, acetonitrile, and phosphate buffer (15:15:70).

O=C1CCC[C@@H]2[C@H]3CCCN4CCC[C@@H](CN12)[C@@H]34 [MAT, Matrine]
solubility thermodynamic at 72 h (aqueous buffer, pH = 4.5 acetic acid buffer): 91.8 ± 2.31 mg/mL (≈ 370 mM)
solubility thermodynamic at 72 h (aqueous buffer, pH = 6.8 phosphate buffer): 64.9 ± 1.13 mg/mL (≈ 261 mM)
solubility thermodynamic at 72 h (simulated gastric fluid, pH = 1.2 hydrochloric acid solution): 90.9 ± 1.01 mg/mL (≈ 366 mM)
solubility thermodynamic at 72 h (H2O (purified water)): 65.36 ± 0.53 mg/mL (≈ 263 mM)

O=C(O)c1c(O)cccc1O.O=C1CCCC2C3CCCN4CCCC(CN12)C34 (stereo not drawn) [MAT-26DHB, MAT-2,6-dihydroxybenzoic acid]
Equilibrium solubility, Concentration (H2O (purified water)): 7.42 ± 0.45 mg/mL
Solubility relative to that of MAT (acetate buffer (pH 4.5)): 0.09 times
Solubility relative to that of MAT (hydrochloric acid solution (pH 1.2)): 0.14 times
Equilibrium solubility, Concentration (pH = 1.2 hydrochloric acid solution): 13.08 ± 1.52 mg/mL
Equilibrium solubility, Concentration (pH = 4.5 acetic acid buffer): 8.23 ± 0.10 mg/mL
Equilibrium solubility, Concentration (pH = 6.8 phosphate buffer): 5.71 ± 0.75 mg/mL
Solubility relative to that of MAT (phosphate buffer (pH 6.8)): 0.09 times
Solubility relative to that of MAT (pure water): 0.11 times
